# Data as given in patent publication US6271234A, “1,4-disubstituted piperazines” (Recordati S.A., Chemical and Pharmaceutical Company, priority 1997, dated 2001).
# Experiments:
# [1] = target: T1, human 5-HT1A -serotoninergic receptor (Homo sapiens, UniProt P08908); assay: Radioreceptor binding to recombinant 5-HT1A receptors ([3H]8-OH-DPAT, HeLa cell membranes); details: [3H]8-OH-DPAT 0.2-1 nM, 30 min at 30° C., read-out: Binding affinity for the 5-HT1A receptor, Ki
# T1 construct: expressed in transfected cells; host or cells: HeLa (human cell line), stably transfected; cell membranes
# T1 sequence (P08908 1-422): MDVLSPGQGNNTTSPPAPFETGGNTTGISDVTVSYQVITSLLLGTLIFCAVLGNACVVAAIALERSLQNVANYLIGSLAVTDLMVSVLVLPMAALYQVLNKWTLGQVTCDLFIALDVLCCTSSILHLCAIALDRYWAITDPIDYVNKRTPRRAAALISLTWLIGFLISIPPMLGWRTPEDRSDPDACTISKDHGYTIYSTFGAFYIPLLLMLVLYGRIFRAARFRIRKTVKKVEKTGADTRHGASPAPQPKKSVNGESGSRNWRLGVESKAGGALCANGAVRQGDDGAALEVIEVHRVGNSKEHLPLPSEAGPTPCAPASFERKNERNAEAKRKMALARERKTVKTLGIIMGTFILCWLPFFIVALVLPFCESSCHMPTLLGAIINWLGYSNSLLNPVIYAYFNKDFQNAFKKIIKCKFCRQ
# Description: HeLa cells were grown as monolayers in Dulbecco's modified Eagle's medium (DMEM), supplemented with 10% fetal calf serum and gentamicin ([…]), 5% CO2 at 37° C. Cells were detached from the growth flash at 95% confluence by a cell scraper and were lysed in ice-cold 5 mM Tris and 5 mM EDTA buffer (pH 7.4). Homogenates were centrifuged at 40000×g×20 min and pellets were resuspended in a small volume of ice-cold 5 mM Tris 5 and 5 mM EDTA buffer (pH 7.4) and immediately frozen and stored at -70° C. until use. On the day of experiment, cell membranes were resuspended in binding buffer: 50 mM Tris HCl (pH 7.4), 2.5 mM MgCl2, […] (Fargin et al., Nature 335, 358-360, 1988). Membranes were incubated in a final volume of 1 ml for 30 min at 30° C. with 0.2-1 nM [^3 H]8-OH-DPAT, in absence or presence of competing drugs; non-specific binding was determined in the presence of […]. The incubation was stopped by addition of ice-cold Tris-HCl buffer and rapid filtration through 0.2% polyethyleneimine pretreated Whatman GF/B or Schleicher & Schuell GF52 filters.
# [2] = tested on: rhythmic bladder voiding contractions; assay: Effects on volume-induced rhythmic bladder voiding contractions in anaesthetized rats; type: in vivo, Female Sprague Dawley rats; details: for Bladder Quiescence (disappearance time of contractions): mean ± S.E.
# Description: The animals were housed with free access to food and water and were maintained on a forced 12 h alternating light-dark cycle at 22-24° C. for at least one week, except during the experiment. […] The catheter was tied in place with a ligature around the external urethral orifice and was connected with conventional pressure transducers (Statham P23 ID/P23 XL). […] The bladder was then filled via the recording catheter by incremental volumes of warm (37° C.) saline until reflex bladder voiding contractions occurred (usually 0.8-1.5 ml).
# After cessation of the effect of drug injection, the height of the peaks was compared with that previously recorded after the intravenous administration of vehicle alone.
# [3] = tested on: rhythmic bladder voiding contractions; details: urethane-anesthetized rats; background statement; cited from earlier work
# [4] = i.v., urethane-anesthetized rats
Structure (SMILES),Ki [1],Bladder Quiescence (disappearance time of contractions) ([2]; 100 μg/kg i.v.),Bladder Quiescence (disappearance time of contractions) ([2]; 1000 μg/kg i.v.),Bladder Quiescence (disappearance time of contractions) ([2]; 3000 μg/kg i.v.),other results
"O=C(C1CCCCC1)N(CCN1CCN(c2cc(Cl)ccc2Cl)CC1)c1ccccn1 [Ex. 10, 1-[N-cyclohexylcarbonyl-N-(2-pyridyl)-2-aminoethyl]-4-(2,5-dichlorophenyl)piperazine]",450 pM,,,,
"O=C(C1CCCCC1)N(CCN1CCN(c2ccccc2OCC(F)(F)F)CC1)c1ccccn1 [Ex. 2, 1-[N-cyclohexylcarbonyl-N-(2-pyridyl)-2-aminoethyl]-4-[2-(2,2,2-trifluoroethoxy)phenyl]piperazine]",890 pM,8.70 ± 2.88 min,27.28 ± 8.70 min,,Bladder Quiescence (disappearance time of contractions) ([2]; 30 μg/kg i.v.): 3.00 ± 0.91 min
"N#Cc1ccccc1N1CCN(CCN(C(=O)C2CCCCC2)c2ccccn2)CC1 [Ex. 4, 1-[N-cyclohexylcarbonyl-N-(2-pyridyl)-2-aminoethyl]-4-(2-cyanophenyl) piperazine]",310 pM,,,,
"COc1cc(NS(C)(=O)=O)ccc1N1CCN(CCN(C(=O)C2CCCCC2)c2ccccn2)CC1 [Ex. 8, 1-[N-cyclohexylcarbonyl-N-(2-pyridyl)-2-aminoethyl]-4-(4-methanesulfonylamino-2-methoxyphenyl)piperazine]",,2.03 ± 0.44 min,7.20 ± 1.07 min,14.20 ± 2.57 min,
"O=C(C1CCCCC1)N(CCN1CCN(Cc2cc(Cl)ccc2Cl)CC1)c1ccccn1 [Ex. 14, 1-[N-cyclohexylcarbonyl-N-(2-pyridyl)-2-aminoethyl]-4-(2,5-dichlorobenzyl)piperazine]",120 pM,10.12 ± 1.98 min,,,Bladder Quiescence (disappearance time of contractions) ([2]; 30 μg/kg i.v.): 2.80 ± 1.31 min; Bladder Quiescence (disappearance time of contractions) ([2]; 300 μg/kg i.v.): 21.52 ± 4.66 min
"CCN(CC)CC#CCOC(=O)C(O)(c1ccccc1)C1CCCCC1 (centres unmarked) [Oxybutynin, reference compound]",,0.92 ± 0.15 min,2.80 ± 0.60 min,6.27 ± 2.90 min,"Effect on bladder voiding contractions in this model system (background, in words) [3]: lower the amplitude of the bladder contractions; Bladder Quiescence (disappearance time of contractions) ([2]; 300 μg/kg i.v.): 2.87 ± 1.12 min; ED50 ([2]; Rattus norvegicus, iv, read-out: ED50 value (extrapolated dose inducing a 30% reduction of amplitude of the contractions in 50% of treated rats)): 240 mg/kg; Duration of bladder quiescence / cessation of bladder contractions (in words) [2, 4]: does not cause cessation of bladder contractions; Effect on amplitude of bladder contractions (in words) [2, 4]: only decreased the amplitude of the contractions in a dose-related manner"
"COc1cc(N)ccc1N1CCN(CCN(C(=O)C2CCCCC2)c2ccccn2)CC1 [Ex. 6, 1-[N-cyclohexylcarbonyl-N-(2-pyridyl)-2-aminoethyl]-4-(4-amino-2-methoxyphenyl)piperazine]",14300 pM,9.82 ± 1.18 min,15.00 ± 3.11 min,,Bladder Quiescence (disappearance time of contractions) ([2]; 10 μg/kg i.v.): 6.75 ± 1.66 min
"COc1cc(NC(C)=O)ccc1N1CCN(CCN(C(=O)C2CCCCC2)c2ccccn2)CC1 [Ex. 7, 1-[N-cyclohexylcarbonyl-N-(2-pyridyl)-2-aminoethyl]-4-(4-acetylamino-2-methoxyphenyl)piperazine]",8150 pM,7.97 ± 1.78 min,20.63 ± 3.31 min,,Bladder Quiescence (disappearance time of contractions) ([2]; 300 μg/kg i.v.): 8.65 ± 1.81 min
"O=C(C1CCCCC1)N(CCN1CCN(c2cc(Cl)ccc2OCC(F)(F)F)CC1)c1ccccn1 [Ex. 3, 1-[N-cyclohexylcarbonyl-N-(2-pyridyl)-2-aminoethyl]-4-[5-chloro-2-(2,2,2-trifluoroethoxy)phenyl]piperazine]",1510 pM,6.15 ± 1.19 min,10.13 ± 0.59 min,14.42 ± 2.36 min,Bladder Quiescence (disappearance time of contractions) ([2]; 10 μg/kg i.v.): 3.15 ± 1.74 min
"O=C(C1CCCCC1)N(CCN1CCN(c2ccccc2OC(F)(F)F)CC1)c1ccccn1 [Ex. 1, 1-[N-cyclohexylcarbonyl-N-(2-pyridyl)-2-aminoethyl]-4-(2-trifluoromethoxyphenyl)piperazine]",860 pM,5.85 ± 1.87 min,16.25 ± 1.38 min,18.40 ± 4.12 min,
"Cc1c(-c2ccccc2)oc2c(C(=O)OCCN3CCCCC3)cccc2c1=O [Flavoxate, reference compound]",,,3.04 ± 0.96 min,5.30 ± 1.00 min,Bladder Quiescence (disappearance time of contractions) ([2]; 10000 μg/kg i.v.): 8.25 ± 1.90 min
